Activity calls are given as the source filed them. No cut-off for these calls is given here.
Key:
NCI-H460 [1] = assay: Induction of apoptosis in human NCI-H460 cells assessed as karyopyknosis and chromatin condensation after 24 hrs by Hoechst 33258 staining-based fluorescence microscopy relative to control; format: functional, cell-based
NCI-H460 [2] = assay: Induction of apoptosis in human NCI-H460 cells assessed as change in mitochondrial membrane potential after 24 hrs by JC-1 staining-based fluorescence microscopy relative to control; format: functional, cell-based
NCI-H460 [3] = assay: Induction of apoptosis in human NCI-H460 cells assessed as early apoptotic cells at 8 uM by Annexin V/propidium iodide staining-based flow cytometry; format: functional, cell-based; settings: TDE = time-dependent effect
NCI-H460 [4] = assay: Induction of apoptosis in human NCI-H460 cells assessed as early apoptotic cells at 20 uM after 24 hrs by Annexin V/propidium iodide staining-based flow cytometry (reference value: 6.8%); format: functional
NCI-H460 [5] = assay: Induction of apoptosis in human NCI-H460 cells assessed as caspase-4 activation after 24 hrs by qRT-PCR analysis; format: functional, cell-based
NCI-H460 [6] = assay: Cell cycle arrest in human NCI-H460 cells assessed as accumulation at G2 phase at 20 uM after 48 hrs by Rnase A/propidium iodide staining-based flow cytometry (reference value: 33.9%); format: functional
NCI-H460 [7] = assay: Induction of apoptosis in human NCI-H460 cells assessed as upregulation of TP53 mRNA expression after 24 hrs by qRT-PCR analysis; format: functional, cell-based
NCI-H460 [8] = assay: Induction of apoptosis in human NCI-H460 cells assessed as upregulation of AIF mRNA expression after 24 hrs by qRT-PCR analysis; format: functional, cell-based
NCI-H460 [9] = assay: Induction of apoptosis in human NCI-H460 cells assessed as upregulation of CAMK1 mRNA expression after 24 hrs by qRT-PCR analysis; format: functional, cell-based
NCI-H460 [10] = assay: Induction of apoptosis in human NCI-H460 cells assessed as late apoptotic cells at 8 uM after 12 hrs by Annexin V/propidium iodide staining-based flow cytometry (reference value: 14.1%); format: functional
NCI-H460 [11] = assay: Induction of apoptosis in human NCI-H460 cells assessed as karyopyknosis and chromatin condensation at 5 to 20 uM after 24 hrs by Hoechst 33258 staining-based fluorescence microscopy relative to control; format: functional, cell-based
NCI-H460 [12] = assay: Induction of apoptosis in human NCI-H460 cells assessed as increase in intracellular calcium release at 5 to 20 uM after 24 hrs by Fluo-3/AM staining-based fluorescence microscopy; format: functional, cell-based
NCI-H460 [13] = assay: Induction of apoptosis in human NCI-H460 cells assessed as early apoptotic cells after 24 hrs by Annexin V/propidium iodide staining-based flow cytometry; format: functional, cell-based
NCI-H460 [14] = assay: Induction of apoptosis in human NCI-H460 cells assessed as caspase-9 activation after 24 hrs by qRT-PCR analysis; format: functional, cell-based
NCI-H460 [15] = assay: Induction of apoptosis in human NCI-H460 cells assessed as early apoptotic cells at 10 uM after 24 hrs by Annexin V/propidium iodide staining-based flow cytometry (reference value: 6.8%); format: functional
NCI-H460 [16] = assay: Induction of apoptosis in human NCI-H460 cells assessed as early apoptotic cells at 5 uM after 24 hrs by Annexin V/propidium iodide staining-based flow cytometry (reference value: 6.8%); format: functional
NCI-H460 [17] = assay: Induction of apoptosis in human NCI-H460 cells assessed as necrotic cells at 8 uM by Annexin V/propidium iodide staining-based flow cytometry; format: functional, cell-based; settings: TDE = time-dependent effect
NCI-H460 [18] = assay: Induction of apoptosis in human NCI-H460 cells assessed as early apoptotic cells at 8 uM after 48 hrs by Annexin V/propidium iodide staining-based flow cytometry (reference value: 6.8%); format: functional
NCI-H460 [19] = assay: Induction of apoptosis in human NCI-H460 cells assessed as late apoptotic cells at 20 uM after 24 hrs by Annexin V/propidium iodide staining-based flow cytometry (reference value: 14.1%); format: functional
NCI-H460 [20] = assay: Induction of apoptosis in human NCI-H460 cells assessed as necrotic cells at 20 uM after 24 hrs by Annexin V/propidium iodide staining-based flow cytometry (reference value: 6.9%); format: functional
NCI-H460 [21] = assay: Cell cycle arrest in human NCI-H460 cells assessed as accumulation at S phase at 8 uM after 12 hrs by Rnase A/propidium iodide staining-based flow cytometry (reference value: 19.41%); format: functional
NCI-H460 [22] = assay: Induction of apoptosis in human NCI-H460 cells assessed as late apoptotic cells at 10 uM after 24 hrs by Annexin V/propidium iodide staining-based flow cytometry (reference value: 14.1%); format: functional
NCI-H460 [23] = assay: Induction of apoptosis in human NCI-H460 cells assessed as early apoptotic cells at 8 uM after 24 hrs by Annexin V/propidium iodide staining-based flow cytometry (reference value: 6.8%); format: functional
NCI-H460 [24] = assay: Cell cycle arrest in human NCI-H460 cells assessed as accumulation at G1 phase at 20 uM after 48 hrs by Rnase A/propidium iodide staining-based flow cytometry (reference value: 46.69%); format: functional
NCI-H460 [25] = assay: Cell cycle arrest in human NCI-H460 cells assessed as accumulation at G2 phase at 8 uM after 24 hrs by Rnase A/propidium iodide staining-based flow cytometry (reference value: 33.9%); format: functional
NCI-H460 [26] = assay: Induction of apoptosis in human NCI-H460 cells assessed as necrotic cells at 10 uM after 24 hrs by Annexin V/propidium iodide staining-based flow cytometry (reference value: 6.9%); format: functional
NCI-H460 [27] = assay: Cell cycle arrest in human NCI-H460 cells assessed as accumulation at G1 phase at 5 uM after 48 hrs by Rnase A/propidium iodide staining-based flow cytometry (reference value: 46.69%); format: functional
NCI-H460 [28] = assay: Induction of apoptosis in human NCI-H460 cells assessed as change in mitochondrial membrane potential at 8 uM by JC-1 staining-based fluorescence microscopy relative to control; format: functional, cell-based; settings: TDE = time-dependent effect
MGC-803 = assay: Cytotoxicity against human MGC803 cells after 48 hrs by MTT assay; format: functional, cell-based; settings: MGC-803, 48 h
NCI-H460 [29] = assay: Cell cycle arrest in human NCI-H460 cells assessed as accumulation at G2 phase at 8 uM after 12 hrs by Rnase A/propidium iodide staining-based flow cytometry (reference value: 33.9%); format: functional
NCI-H460 [30] = assay: Induction of apoptosis in human NCI-H460 cells assessed as increase in intracellular ROS generation at 5 to 20 uM after 24 hrs by DCFH-DA staining-based fluorescence microscopy; format: functional, cell-based
HCT-116 = assay: cells; settings: Homo sapiens, HCT-116, 48 h
Description: Cytotoxicity against human HCT116 cells after 48 hrs by MTT assay

NCI-H460 [31] = assay: Induction of apoptosis in human NCI-H460 cells assessed as necrotic cells at 8 uM after 48 hrs by Annexin V/propidium iodide staining-based flow cytometry (reference value: 6.9%); format: functional
NCI-H460 [32] = assay: Induction of apoptosis in human NCI-H460 cells assessed as viable cells after 24 hrs by Annexin V/propidium iodide staining-based flow cytometry; format: functional, cell-based
CNE = assay: Cytotoxicity against human CNE cells after 48 hrs by MTT assay; format: functional, cell-based
HUVEC = assay: Cytotoxicity against HUVEC after 48 hrs by MTT assay; format: cell-based; settings: Homo sapiens
NCI-H460 [33] = assay: Cell cycle arrest in human NCI-H460 cells assessed as accumulation at G2 phase at 5 uM after 48 hrs by Rnase A/propidium iodide staining-based flow cytometry (reference value: 33.9%); format: functional
NCI-H460 [34] = assay: Cell cycle arrest in human NCI-H460 cells assessed as accumulation at S phase at 5 uM after 48 hrs by Rnase A/propidium iodide staining-based flow cytometry (reference value: 19.41%); format: functional

Row | SMILES | Activity (NCI-H460 [1]) | Activity (NCI-H460 [2]) | Activity (NCI-H460 [3]) | Activity (NCI-H460 [4]) | Activity (NCI-H460 [5]) | Activity (NCI-H460 [6]) | Activity (NCI-H460 [7]) | Activity (NCI-H460 [8]) | Activity (NCI-H460 [9]) | Activity (NCI-H460 [10]) | Activity (NCI-H460 [11]) | Activity (NCI-H460 [12]) | Activity (NCI-H460 [13]) | Activity (NCI-H460 [14]) | Activity (NCI-H460 [15]) | Activity (NCI-H460 [16]) | Activity (NCI-H460 [17]) | Activity (NCI-H460 [18]) | Activity (NCI-H460 [19]) | Activity (NCI-H460 [20]) | other results
1 | CCOP(=O)(OCC)C(NC(=O)C(C)Oc1ccc2c(c1O)C(=O)c1ccccc1C2=O)c1cccc2ccccc12 (centres undefined) | Dose-dependent effect | Dose-dependent effect | tde | 38.8% | Dose-dependent effect | 21.34% | Dose-dependent effect | Dose-dependent effect | Dose-dependent effect | 8.3% | Active | Active | Dose-dependent effect | Dose-dependent effect | 35.7% | 10.9% | tde | 54.9% | 16.4% | 1.4% | Activity (NCI-H460 [21]): 0.11%; Activity (NCI-H460 [22]): 18.6%; Activity (NCI-H460 [23]): 36.6%; Activity (NCI-H460 [24]): 61.6%; Activity (NCI-H460 [25]): 32.56%; Activity (NCI-H460 [26]): 1.1%; Activity (NCI-H460 [27]): 57.2%; Activity (NCI-H460 [28]): tde; IC50 (MGC-803): 3.77 µM; Activity (NCI-H460 [29]): 34.32%; Activity (NCI-H460 [30]): Active; IC50 (HCT-116): 40 µM; Activity (NCI-H460 [31]): 3.7%; Activity (NCI-H460 [32]): Dose-dependent effect; IC50 (CNE): > 50 µM; IC50 (HUVEC): 40.5 µM; Activity (NCI-H460 [33]): 25.78%; Activity (NCI-H460 [34]): 17.02%
2 | CCOP(=O)(OCC)C(NC(=O)C(C)Oc1ccc2c(c1O)C(=O)c1ccccc1C2=O)c1ccccc1OC (centres undefined) | Dose-dependent effect | Dose-dependent effect | tde | 34.7% | Dose-dependent effect | 23.09% | Dose-dependent effect | Dose-dependent effect | Dose-dependent effect | 5.6% | Active | Active | Dose-dependent effect | Dose-dependent effect | 32.4% | 26.6% | tde | 50.2% | 30.7% | 12.9% | Activity (NCI-H460 [21]): 15.62%; Activity (NCI-H460 [22]): 17.8%; Activity (NCI-H460 [23]): 38.9%; Activity (NCI-H460 [24]): 65.1%; Activity (NCI-H460 [25]): 21.99%; Activity (NCI-H460 [26]): 8.4%; Activity (NCI-H460 [27]): 56.85%; Activity (NCI-H460 [28]): tde; IC50 (MGC-803): 10.1 µM; Activity (NCI-H460 [29]): 27.54%; Activity (NCI-H460 [30]): Active; IC50 (HCT-116): 10.5 µM; Activity (NCI-H460 [31]): 3.2%; Activity (NCI-H460 [32]): Dose-dependent effect; IC50 (CNE): 34.2 µM; IC50 (HUVEC): > 50 µM; Activity (NCI-H460 [33]): 34.41%; Activity (NCI-H460 [34]): 8.74%
3 | CCOP(=O)(OCC)C(NC(=O)C(C)Oc1ccc2c(c1O)C(=O)c1ccccc1C2=O)c1ccccc1F (centres undefined) | Dose-dependent effect | Dose-dependent effect | tde | 55.1% | Dose-dependent effect | 20.06% | Dose-dependent effect | Dose-dependent effect | Dose-dependent effect | 7.9% | Active | Active | Dose-dependent effect | Dose-dependent effect | 56.3% | 28.9% | tde | 56.4% | 9.8% | 1.4% | Activity (NCI-H460 [21]): 14.65%; Activity (NCI-H460 [22]): 6.8%; Activity (NCI-H460 [23]): 38.8%; Activity (NCI-H460 [24]): 68.89%; Activity (NCI-H460 [25]): 23.05%; Activity (NCI-H460 [26]): 0.8%; Activity (NCI-H460 [27]): 64.52%; Activity (NCI-H460 [28]): tde; IC50 (MGC-803): 18.8 µM; Activity (NCI-H460 [29]): 29.57%; Activity (NCI-H460 [30]): Active; IC50 (HCT-116): 13.3 µM; Activity (NCI-H460 [31]): 3.2%; Activity (NCI-H460 [32]): Dose-dependent effect; IC50 (CNE): 30.2 µM; IC50 (HUVEC): 21 µM; Activity (NCI-H460 [33]): 23.14%; Activity (NCI-H460 [34]): 12.34%
